# Laboratory results taken from patent US10478464B2, “Compositions and methods of use” (priority 2009, dated 2019).
# Assays:
# [1] = test system: HOP-92 lung cancer cell lines; assay: Cell survival, colorimetric MTT assay, HOP-92; format: cell-based, human; settings: 100 μM, 72 hours
# Description: 1) Against the lung cancer cell lines: The effect of the racemic mixture of 8-HHA and that of the individual enantiomers, namely S and R enantiomers, were examined on the survival of HOP-92 lung cancer cell lines. The cell viability was examined in the exponential growth phase with 100 μM of 8-HHA for 72 hours using colorimetric MTT assay. In separate assays, HOP-92 cells were treated with different concentrations of the S-enantiomer of 8-HHA ranging from 20-100 μM for 72 hours.
# [2] = Maximal tolerated dose (MTD), single IV bolus; format: in vivo
# Description: The purpose of this study was to determine the maximum tolerated dose of 8-HHA following intravenous (IV) administration in ICR mice. A racemic mixture of 8-HHA, placebo, and vehicle were administered to 20 ICR female mice with weight of 25-30 grams, respectively. The 8-HHA was formulated in nanolipid at concentration of 0, 10, 20 and 40 mg/ml. There were 4 animals per group and they were injected with 0, 10, 20 and 40 mg/kg dose of 8-HHA Mice were given a single bolus dose via the tail vein according to group assignment. One week after dosing mice were sacrificed. Daily clinical observations were performed 15 minutes and 1 hour post dose. The mice were observed daily for any adverse effects until necropsy on study day 8. Body weights were recorded for all the mice prior to test substance administration, and every other day throughout the test period. This entire study was performed at Toxikon Corporation, Bedford, Mass.
# [3] = test system: leukemia cell lines (CCRF-CEM, K-562, SR, MOLT-4, RPMI-8226, HL-60(TB)); assay: NCI 60 human tumor cell line screen (MTT), leukemia lines; format: cell-based; settings: 10 μM
# [4] = test system: HOP92 cells; assay: Lung cancer xenograft mouse model (HOP92); format: in vivo, BALB/c nu/nu mice; settings: for Mean ± SEM Tumor Volume (HOP-92): 10 mg/kg IP
# Description: The purpose of this study was to determine anti tumor efficacy of 8-HHA in lung cancer using HOP92 cells.
# Animals and care: Thirty BABL/c nude, non-pregnant and nulliparous female mice that are 5-6 weeks old and weighing 16-20 gms were used in this study. BALB/c nu/nu mice were used because they have been historically used in xenograft studies to test anti-tumor efficacy of drug candidates. Mice were acclimatized for minimum 5 days, under same conditions as for the actual test. Mice were housed at room temperature 68±5° F. with room Relative Humidity of 30-70%, air Exchanges per Hour of a minimum of 10 changes per hour, lights exposure of 12-hour light/dark cycle, full spectrum fluorescent lights. The mice were housed in groups in ventilated micro-isolator cages made up of polycarbonate. The mice were using autoclaved laboratory grade bedding and were provided ad libitum with irradiated pellets and autoclaved water. There were no known contaminants present in the feed, water, or bedding expected to interfere with the test data. The laboratory and animal rooms were maintained as limited-access facilities.
# Route of injection and dose: 8-HHA was administered through intraperitoneal (IP) injection.
# Tumor Induction: The cell line HOP92 were cultured according to recommended specifications at Vanas Oncology as above discussed in Example 20. Cells were trypizinized and counted using the Trypan-blue viability test using a hemocytometer. Cell counts in quadrants of the hemocytometer were converted to a cells/mL value, which will enable isolation of the appropriate number of cells per mouse. Each mouse was inoculated subcutaneously in the right flank region with 0.2 mL of a 50% RPMI/50% Matrigel™ mixture containing a suspension of tumor cells (5×10^6 cells/mouse). Tumors were observed twice weekly until well established. Tumor volume was calculated using the formula: Tumor weight (mg)=(a×b^2/2) where ‘b’ is the smallest diameter and ‘a’ is the largest diameter in millimeters.
# Allocation of Animals: Once the established tumors reach a mean calculated volume of approximately 50-100 mg, the mice were randomized, using appropriate software, into treatment groups in order to reduce the variability of tumor sizes per group.
# Pre Dose Procedure: Acclimated animals were weighed and observed for clinical signs of toxicity prior to dosing on Day 1.
# The first day of dosing is Day 1. On Day 1,8-HHA, and vehicle injections are administered according to the study design in Table 9 below.
# Post Dose Procedure: Following treatment, tumor and mouse body weight measurements were recorded twice weekly and gross observation was made at least once daily. Mice with tumors that were not palpable was considered complete regressions. Percentage of mice mortality and time of death were recorded for every group in the study. Animals may be defined as moribund and sacrificed if one or more of the following criteria are met: • Loss of body weight of 20% or greater in a 1 week period. • Mice that inhibit normal physiological function such as eating, drinking, mobility, and ability to urinate and/or defecate. • Tumors that exceed a maximum size of 2000 mg as measured by calipers. • Ulcerated tumors, or tumors that bleed or produce exudates. • Prolonged, excessive diarrhea leading to excessive weight loss (>20%). • Persistent wheezing and respiratory distress. • Prolonged or excessive pain or distress as defined by clinical observations such as: prostration, hunched posture, paralysis/paresis, distended abdomen, ulcerations, abscesses, seizures, and/or hemorrhages.
# [5] = test system: Hep3B liver cancer cell line; assay: Cell survival, colorimetric MTT assay, Hep3B; format: cell-based; settings: 100 μM, 72 hours
# Description: (§1) 2) Against the liver cancer cell lines: The effect of the racemic mixture of 8-HHA and that of the individual enantiomers, namely S and R enantiomers, were examined on survival of PLC/PRF/5 (also referred to as “PLC-5” or “PLC5”), Hep3B and SNU449 (also referred to as “SNU”) liver cancer cell lines. The cell viability was examined in the exponential growth phase with 100 μM of 8-HHA for 72 hours using colorimetric MTT assay. In separate assays, PLC-5 cells were treated with different concentrations of S-enantiomer of 8-HHA ranging from 20-100 μM for 72 hours.
# [6] = test system: SNU449 liver cancer cell line; assay: Cell survival, colorimetric MTT assay, SNU449; format: cell-based; settings: 100 μM, 72 hours
# Description: as §1
# [7] = test system: colorectal cancer cell lines (HCT-116, HCT-15, KM12); assay: NCI 60 human tumor cell line screen (MTT), colorectal lines; settings: 10 μM; three out of 7 lines
# Description: (§2) The screening is a microplate cytotoxicity assays based on a simple colorimetric (MTT) assay which relies on the metabolic reduction of a tetrazolium dye in viable cells to a colored formazan product. A modified protocol was used for the screening of the compound and measures the inhibition of growth of various tumor cell lines. The 8-HHA tested in this assay was at the concentration of 10 μM.
# [8] = Water solubility (statement); format: physicochemical
# [9] = test system: non-small cell lung cancer cell lines (HOP-92, NCI-H460); assay: NCI 60 human tumor cell line screen (MTT), non-small cell lung cancer lines; settings: 10 μM
# Description: as §2
# [10] = test system: PLC/PRF/5 liver cancer cell line; assay: Cell survival, colorimetric MTT assay, PLC/PRF/5; format: cell-based; settings: 100 μM, 72 hours
# Description: as §1
structure (smiles),measurement,setting,value
"CCCCCCCCC(O)CCCCCCC(=O)O (racemic) [Sample 8-HHA, 8-hydroxy-palmitic acid]",reduced the survival of HOP92 cell lines by,[1],25%
same,tolerability / clinical abnormalities,[2]; 10 mg/kg and 20 mg/kg IV,did not demonstrate any clinical abnormalities
same,mice that died shortly after being dosed,"[2]; high dose 40 mg/kg IV, 4 animals per group",Two
same,MTD at 8 days,"[2]; mouse, in vivo, ICR female mice, single IV bolus, nanolipid formulation, read-out: maximum tolerated dose",20 mg/kg
same,body weight at day 6 and 8,[2]; single IV bolus,did not vary from pre dose weight
same,suppressed growth of leukemia cell lines,[3],40-96%
same,Mean ± SEM Tumor Volume (HOP-92),[4]; Day 16,88.78±28.61 mm^3
same,Mean ± SEM Tumor Volume (HOP-92),[4]; Day 18,82.02±25.93 mm^3
same,decrease in tumor volume vs control group,"[4]; T1 10 mg/Kg, day 16",58.6%
same,decrease in tumor volume vs control group,"[4]; T1 10 mg/Kg, day 18",68.2%
same,decrease in tumor volume vs control group,"[4]; T2 100 mg/Kg, day 16",56.5%
same,decrease in tumor volume vs control group,"[4]; T2 100 mg/Kg, day 18",73.1%
same,"tumor growth inhibition, in words",[4]; both T1 (10 mg/Kg) and T2 (100 mg/Kg),significantly inhibited tumor growth in mice from day 16
same,reduced the survival of Hep3B cell line by,[5],25%
same,effect on survival of SNU cell line,[6],no major effect
same,"growth suppression of colorectal cancer cell lines, in words",[7],moderate evidence of growth suppression
same,water solubility,[8],poorly water soluble
same,"inhibition of growth on non-small cell lung cancer cell lines, in words",[9],remarkable inhibition of growth
same,reduced the survival of PLC-5 cell line by,[10],52%
